This data set can be described thus: solvent given as SMILES.
Setting [1] is: in CCCCCCCCC=CCCCCCCCC(=O)OCC(COC(=O)CCCCCCCC=CCCCCCCCC)OC(=O)CCCCCCCC=CCCCCCCCC

For the molecule `C=C1CCC2(C(C)C)CC12` (centres undefined), the “solvation free energy, 298 K” value (in O) was 2.05 kJ/mol.
Same read-out and setting: under `Cc1ccc(C)c2ccccc12` stands -11.8 kJ/mol; under `OCCCc1ccccc1`, -29 kJ/mol.
Still for that read-out and setting: for `COc1nc(NC(C)C)nc(NC(C)C)n1` the value was -40.5 kJ/mol.
Take `Oc1ccc(Cl)cc1Cl`: the “solvation free energy, 298 K” value is, setting by setting: (in CCCCCC) -28.5 kJ/mol; (in CCCCCCC) -28.7 kJ/mol; (in CCCCCCCC) -28.5 kJ/mol; under setting [1], -31.3 kJ/mol; (in CCCCCCCCCC) -28.4 kJ/mol; (in Cc1ccc(C)cc1) -31.7 kJ/mol. The “solvation free energy, 298 K” value is, setting by setting: (in Cc1cccc(C)c1) -31.6 kJ/mol; (in Cc1ccccc1C) -32 kJ/mol; (in O) -20.8 kJ/mol.
With `O=C(O)c1ccc(Cl)c([N+](=O)[O-])c1`, the “solvation free energy, 298 K” value (in C1CCOC1) is -59.2 kJ/mol; the “solvation free energy, 298 K” value (in C1COCCO1) is -59.2 kJ/mol; the “solvation free energy, 298 K” value (in CC(C)(C)O) was -55.8 kJ/mol; the “solvation free energy, 298 K” value (in CC(C)CCO) is -54.7 kJ/mol; the “solvation free energy, 298 K” value (in CC(C)CO) is -54.1 kJ/mol; the “solvation free energy, 298 K” value (in CC(C)O) was -55.9 kJ/mol. For the same molecule, the “solvation free energy, 298 K” value runs as follows: (in CCC(C)O) -55.4 kJ/mol; (in CCCC(=O)OC) -54.4 kJ/mol; (in CCCC(C)O) -55.3 kJ/mol; (in CCCCCCCCCCO) -54.1 kJ/mol; (in CCCCCCCCO) -54.6 kJ/mol; (in CCCCCCCO) -54.8 kJ/mol. Besides, the “solvation free energy, 298 K” value is -55 kJ/mol (in CCCCCCO); -55.1 kJ/mol (in CCCCCO); -55.4 kJ/mol (in CCCCO); -54.6 kJ/mol (in CCCCOC(C)=O); -55.8 kJ/mol (in CCCO); -53.8 kJ/mol (in CCCOC(C)=O). The “solvation free energy, 298 K” value by setting is: (in CCO) -56.6 kJ/mol; (in CCOC(C)=O) -55.7 kJ/mol; (in CCOCC) -54.7 kJ/mol; (in CN(C)C=O) -59.1 kJ/mol; (in COC(C)=O) -56.1 kJ/mol; (in O) -41.2 kJ/mol.
As for `CS(=O)(=O)Cl`, the “solvation free energy, 298 K” value (in O) was -20.4 kJ/mol.
Same read-out and setting: for `CCc1ccccc1C` the value was -3.97 kJ/mol; for `CC(C(=O)O)c1ccc2c(c1)[nH]c1ccc(Cl)cc12` (centres undefined), -63 kJ/mol.
As to `c1ccc2c(c1)OCCOCCOCCOCCO2`, the “solvation free energy, 298 K” value by setting is: (in Cc1cccc(C)c1) -61.9 kJ/mol; (in O) -60.2 kJ/mol.
`CCSCC`: the “solvation free energy, 298 K” value (in O) is -6.11 kJ/mol.
For the molecule `Cc1c(C)c(C)c(C)c(C)c1C`, the “solvation free energy, 298 K” value (in CCCCCCCCO) was -36 kJ/mol and the “solvation free energy, 298 K” value (in O) was -8.16 kJ/mol.
As to `Clc1c(Cl)c(Cl)c2c(c1Cl)Oc1c(Cl)c(Cl)c(Cl)c(Cl)c1O2`, the “solvation free energy, 298 K” value (in O) is -19 kJ/mol.
As to `C=C1C=CC(C(C)C)CC1` (centres undefined), the “solvation free energy, 298 K” value (in O) turned out to be 1.09 kJ/mol.
As for `COc1ccc(C(=O)O)cc1`, the “solvation free energy, 298 K” value reads like this: (in C1CCOC1) -53.3 kJ/mol; (in C1COCCO1) -51.9 kJ/mol; (in CC(C)CCO) -48.1 kJ/mol; (in CC(C)CO) -47.9 kJ/mol; (in CC(C)O) -49.3 kJ/mol; (in CC(C)OC(C)C) -45.2 kJ/mol. Moreover, the “solvation free energy, 298 K” value is -51.3 kJ/mol (in CC(C)OCCO); -50 kJ/mol (in CC(O)COC(C)(C)C); -49.1 kJ/mol (in CCC(C)O); -48.7 kJ/mol (in CCCC(C)O); -47.5 kJ/mol (in CCCCCCCCCCO); -48 kJ/mol (in CCCCCCCCO). Further, the “solvation free energy, 298 K” value is -48.2 kJ/mol (in CCCCCCCO); -48.4 kJ/mol (in CCCCCCO); -48.6 kJ/mol (in CCCCCO); -48.9 kJ/mol (in CCCCO); -48 kJ/mol (in CCCCOC(C)=O); -51.2 kJ/mol (in CCCCOCCO). In addition, the “solvation free energy, 298 K” value by setting is: (in CCCO) -49.2 kJ/mol; (in CCCOCCO) -51.1 kJ/mol; (in CCO) -50.2 kJ/mol; (in CCOC(C)=O) -49.2 kJ/mol; (in CCOCC) -48.3 kJ/mol; (in CCOCCO) -52 kJ/mol. Further, the “solvation free energy, 298 K” value by setting is: (in COC(C)CCO) -51.4 kJ/mol; (in O) -38.2 kJ/mol.
For `CC(C)(Cl)Cl`, the “solvation free energy, 298 K” value (in O) was -1.8 kJ/mol.
Still for that read-out and setting: for `COc1ccc(C(=O)N(C)C)cc1` the value was -46.1 kJ/mol.
`C=CC(=C)CCC=C(C)C`: for the setting “in O”, the “solvation free energy, 298 K” value was -2.09 kJ/mol.
Take `CC(=O)OC(C)(C)C1CC=C(C)CC1` (centres undefined): the “solvation free energy, 298 K” value (in O) is -14.3 kJ/mol.
In the case of `C1CCNC1`, the “solvation free energy, 298 K” value (in C1CCCCC1) was -17.5 kJ/mol; the “solvation free energy, 298 K” value (in CCCCCCCCO) is -23.2 kJ/mol; the “solvation free energy, 298 K” value (in O) was -22.9 kJ/mol.
Consider `CN1CCCC1c1cccnc1` (centres undefined), for which the “solvation free energy, 298 K” value (in O) is -33.4 kJ/mol.
Turning to `CC(C)c1ccccc1`, the “solvation free energy, 298 K” value (in C1CCOC1) was -27.2 kJ/mol; the “solvation free energy, 298 K” value (in CC#N) was -23.1 kJ/mol; the “solvation free energy, 298 K” value (in CC(C)=O) was -24.6 kJ/mol; the “solvation free energy, 298 K” value (in CC(C)O) is -21.8 kJ/mol; the “solvation free energy, 298 K” value (in CCCCCCC) is -23.9 kJ/mol; the “solvation free energy, 298 K” value (in CCCCCCCCO) is -22.7 kJ/mol. In addition, the “solvation free energy, 298 K” value is, setting by setting: (in CO) -21.7 kJ/mol; (in NC=O) -14.1 kJ/mol; (in O) -1.42 kJ/mol; (in O=CN1CCOCC1) -22.1 kJ/mol; (in OCCO) -14.8 kJ/mol; (in OCCOCCO) -18.5 kJ/mol. Moreover, the “solvation free energy, 298 K” value (in OCCOCCOCCO) is -19.1 kJ/mol.
As to `CCCCCCCCCCCOC(=O)c1ccccc1C(=O)OCCCCCCCCCCC`, the “solvation free energy, 298 K” value (in O) is -25.4 kJ/mol.
Turning to `O=[N+]([O-])c1ccc(Cl)c(Cl)c1`, the “solvation free energy, 298 K” value was -36.4 kJ/mol (in C1CCCCC1); -33.6 kJ/mol (in CC(C)O); -32.6 kJ/mol (in CCCCCC); -32 kJ/mol (in CCCCCCC); -30.7 kJ/mol under setting [1]; -33.8 kJ/mol (in CCCCO). Besides, the “solvation free energy, 298 K” value runs as follows: (in CCCO) -34.6 kJ/mol; (in CCO) -34.5 kJ/mol; (in CCOC(C)=O) -38.3 kJ/mol; (in CO) -35.2 kJ/mol; (in ClC(Cl)(Cl)Cl) -37.9 kJ/mol.
As for `CCI`, the “solvation free energy, 298 K” value runs as follows: (in Brc1cccc2ccccc12) -16.6 kJ/mol; (in Brc1ccccc1) -17.7 kJ/mol; (in C1CCOC1) -18.6 kJ/mol; (in C1COCCO1) -17.6 kJ/mol; (in C=CCCCCCCCCCCCCCC) -14.8 kJ/mol; (in CC1COC(=O)O1) -15.5 kJ/mol. For the same molecule, the “solvation free energy, 298 K” value by setting is: (in CC#N) -15.9 kJ/mol; (in CC(=O)N(C)C) -16.6 kJ/mol; (in CC(=O)OCc1ccccc1) -16.4 kJ/mol; (in CC(=O)c1ccccc1) -16.9 kJ/mol; (in CC(C)(C)O) -14.6 kJ/mol; (in CC(C)=O) -16.7 kJ/mol. Further, the “solvation free energy, 298 K” value reads like this: (in CC(C)CC(C)(C)C) -15.1 kJ/mol; (in CC(C)CCO) -15.7 kJ/mol; (in CC(C)O) -14.9 kJ/mol; (in CCC#N) -16.5 kJ/mol; (in CCC(C)=O) -17.2 kJ/mol; (in CCCBr) -18 kJ/mol. Further, the “solvation free energy, 298 K” value was -15.6 kJ/mol (in CCCCCC); -15.4 kJ/mol (in CCCCCCC); -15.3 kJ/mol (in CCCCCCCC); -14.8 kJ/mol (in CCCCCCCCO); -17.4 kJ/mol (in CCCCCl); -15.2 kJ/mol (in CCCCO). Also, the “solvation free energy, 298 K” value (in CCCO) is -14.9 kJ/mol; the “solvation free energy, 298 K” value (in CCO) was -14.9 kJ/mol; the “solvation free energy, 298 K” value (in CCOC(=O)c1ccccc1) is -16.7 kJ/mol; the “solvation free energy, 298 K” value (in CCOC(C)=O) is -16.9 kJ/mol; the “solvation free energy, 298 K” value (in CCOCC) was -15.8 kJ/mol; the “solvation free energy, 298 K” value (in CN(C)C=O) was -16 kJ/mol. For the same molecule, the “solvation free energy, 298 K” value reads like this: (in CO) -15 kJ/mol; (in CS(C)=O) -16 kJ/mol; (in Cc1ccc(C)cc1) -17.3 kJ/mol; (in Cc1ccccc1) -17.6 kJ/mol; (in ClC1CCCCC1) -17.5 kJ/mol; (in ClC(Cl)(Cl)Cl) -17.4 kJ/mol. Also, the “solvation free energy, 298 K” value is -18.5 kJ/mol (in ClC(Cl)C(Cl)Cl); -18.6 kJ/mol (in ClC(Cl)Cl); -17.6 kJ/mol (in ClCCCl); -17.2 kJ/mol (in ClCCl); -17.7 kJ/mol (in Clc1ccccc1); -17.9 kJ/mol (in Ic1ccccc1). The “solvation free energy, 298 K” value (in N#Cc1ccccc1) was -16.7 kJ/mol; the “solvation free energy, 298 K” value (in O) was -3.1 kJ/mol; the “solvation free energy, 298 K” value (in O=C1CCCCC1) was -17.5 kJ/mol; the “solvation free energy, 298 K” value (in c1ccc2ncccc2c1) was -16.4 kJ/mol; the “solvation free energy, 298 K” value (in c1ccccc1) was -18.1 kJ/mol.
In the case of `CCCCC(C)(C)C`, the “solvation free energy, 298 K” value (in O) amounted to 12.6 kJ/mol.

For the origin of these results see the CombiSolv-Exp solvation set (Vermeire and Green 2021).
